Measured values published in ChEMBL document CHEMBL3885861, “Open TG-GATES”.

Organism: Rattus norvegicus
Experiment: Open TG-GATES - Regimen: Single
Assay type: toxicity, organism-based, Sprague-Dawley
Parameters: regimen Single, gender Male, age 6 weeks
Details: in vivo, po, 0 mg/kg, route gavage, dose level Control; for APTT / Bas / Eos / Fbg / Hb / Ht / Lym / MCH / MCHC / MCV / Mono / Neu / PT / Plat / RBC / Ret / WBC: tissue Blood; for KIDNEY_L / KIDNEY_R / KIDNEY_TOTAL: tissue Kidney; for LIVER: tissue Liver; for A/G / ALP / ALT / AST / BUN / CRE / Ca / Cl / DBIL / GLC / IP / K / LDH / Na / PL / RALB / TBIL / TC / TG / TP / gamma-GTP: tissue Plasma

## COc1ccc(Cl)cc1C(=O)NCCc1ccc(S(=O)(=O)NC(=O)NC2CCCCC2)cc1 [GLYBURIDE]
3 h
  TERMINAL_BW: 216 g
  APTT: 19.2 s
  Bas: 0%
  Eos: 1%
  Fbg: 221.2 mg/dL
  Hb: 13.2 g/dL
  Ht: 40.6%
  Lym: 70.4%
  MCH: 21 pg
  MCHC: 32.4%
  MCV: 64.7 fL
  Mono: 3%
  Neu: 24.4%
  PT: 12.3 s
  Plat: 125.5 x10_4/uL
  RBC: 628.8 x10_4/ul
  Ret: 8%
  WBC: 84.1 x10_2/uL
  KIDNEY_L: 1 g
  KIDNEY_R: 1 g
  KIDNEY_TOTAL: 1.9 g
  LIVER: 10.1 g
  A/G: 1.7
  ALP: 1085 IU/L
  ALT: 41.8 IU/L
  AST: 70.8 IU/L
  BUN: 11.8 mg/dL
  CRE: 0.4 mg/dL
  Ca: 11 mg/dL
  Cl: 104 meq/L
  DBIL: 0.2 mg/dL
  GLC: 191.6 mg/dL
  IP: 8.8 mg/dL
  K: 3.8 meq/L
  LDH: 166.6 IU/L
  Na: 141 meq/L
  PL: 187.6 mg/dL
  RALB: 3.5 g/dL
  TBIL: 0.2 mg/dL
  TC: 88 mg/dL
  TG: 160.2 mg/dL
  TP: 5.6 g/dL
  gamma-GTP: 0.8 IU/L
6 h
  TERMINAL_BW: 212.5 g
  APTT: 19.8 s
  Bas: 0%
  Eos: 1%
  Fbg: 228.6 mg/dL
  Hb: 13.6 g/dL
  Ht: 42.2%
  Lym: 70.2%
  MCH: 20.1 pg
  MCHC: 32.2%
  MCV: 62.4 fL
  Mono: 3.4%
  Neu: 24.2%
  PT: 12.5 s
  Plat: 122.5 x10_4/uL
  RBC: 676.8 x10_4/ul
  Ret: 7.8%
  WBC: 87.5 x10_2/uL
  KIDNEY_L: 1 g
  KIDNEY_R: 1 g
  KIDNEY_TOTAL: 2 g
  LIVER: 9.5 g
  A/G: 1.6
  ALP: 1140.4 IU/L
  ALT: 35 IU/L
  AST: 67.4 IU/L
  BUN: 8.8 mg/dL
  CRE: 0.4 mg/dL
  Ca: 10.9 mg/dL
  Cl: 103 meq/L
  DBIL: 0.092 mg/dL
  GLC: 207.2 mg/dL
  IP: 9.8 mg/dL
  K: 3.6 meq/L
  LDH: 159.4 IU/L
  Na: 141.2 meq/L
  PL: 148.6 mg/dL
  RALB: 3.5 g/dL
  TBIL: 0.2 mg/dL
  TC: 77.2 mg/dL
  TG: 65.2 mg/dL
  TP: 5.6 g/dL
  gamma-GTP: 1 IU/L
9 h
  TERMINAL_BW: 213.3 g
  APTT: 19.1 s
  Bas: 0%
  Eos: 1%
  Fbg: 220 mg/dL
  Hb: 13 g/dL
  Ht: 39.7%
  Lym: 77%
  MCH: 20.8 pg
  MCHC: 32.7%
  MCV: 63.6 fL
  Mono: 2.2%
  Neu: 18.8%
  PT: 12.7 s
  Plat: 133.8 x10_4/uL
  RBC: 625.4 x10_4/ul
  Ret: 8.1%
  WBC: 102.8 x10_2/uL
  KIDNEY_L: 0.9 g
  KIDNEY_R: 0.9 g
  KIDNEY_TOTAL: 1.9 g
  LIVER: 8.8 g
  A/G: 1.7
  ALP: 1066.8 IU/L
  ALT: 30.8 IU/L
  AST: 61.6 IU/L
  BUN: 10.8 mg/dL
  CRE: 0.4 mg/dL
  Ca: 10.1 mg/dL
  Cl: 102.2 meq/L
  DBIL: 0.09 mg/dL
  GLC: 216.2 mg/dL
  IP: 11.1 mg/dL
  K: 3.5 meq/L
  LDH: 125.8 IU/L
  Na: 140.8 meq/L
  PL: 137.4 mg/dL
  RALB: 3.4 g/dL
  TBIL: 0.1 mg/dL
  TC: 72.8 mg/dL
  TG: 52.2 mg/dL
  TP: 5.4 g/dL
  gamma-GTP: 1.6 IU/L
24 h
  TERMINAL_BW: 226.7 g
  APTT: 18.3 s
  Bas: 0.4%
  Eos: 1%
  Fbg: 218.6 mg/dL
  Hb: 13.2 g/dL
  Ht: 38%
  Lym: 77%
  MCH: 21.7 pg
  MCHC: 34.7%
  MCV: 62.4 fL
  Mono: 2.4%
  Neu: 18.6%
  PT: 12.5 s
  Plat: 126.2 x10_4/uL
  RBC: 609.6 x10_4/ul
  Ret: 7.7%
  WBC: 105.9 x10_2/uL
  KIDNEY_L: 1 g
  KIDNEY_R: 1 g
  KIDNEY_TOTAL: 2 g
  LIVER: 10.9 g
  A/G: 1.5
  ALP: 1024.2 IU/L
  ALT: 32.2 IU/L
  AST: 61.4 IU/L
  BUN: 16.4 mg/dL
  CRE: 0.4 mg/dL
  Ca: 10.7 mg/dL
  Cl: 102.2 meq/L
  DBIL: 0.1 mg/dL
  GLC: 215.6 mg/dL
  IP: 7.5 mg/dL
  K: 3.7 meq/L
  LDH: 189.6 IU/L
  Na: 141.2 meq/L
  PL: 146.2 mg/dL
  RALB: 3.3 g/dL
  TBIL: 0.2 mg/dL
  TC: 73.2 mg/dL
  TG: 97.8 mg/dL
  TP: 5.4 g/dL
  gamma-GTP: 1.4 IU/L
